How the values were obtained:
VEGFR2 = molecular target: T1, VEGFR2 (Homo sapiens, UniProt P35968); test: Z'-LYTE in vitro enzyme activity assay, VEGFR2; assay type: biochemical; settings: 100 μM ATP, 60 minutes, room temperature; read-out: IC50 detected by Z'-LYTE, VEGFR2
T1 construct: purchased Life technology
In short: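 Reaction with 3 nM VEGFR2, 2 μM Tyr1 peptide and 100 μM ATP in HEPES pH 7.5/MgCl2/EGTA/BRIJ-35, 1% DMSO, 60 min at room temperature; development reagent then 60 min at 23° C. Compounds tested at 11 threefold dilutions, 10 μM–0.17 nM final, in duplicate; IC50 from 4-parameter fit of inhibition.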

FGFR1 = molecular target: T2, FGFR1 (Homo sapiens, UniProt P11362); test: Z'-LYTE in vitro enzyme activity assay, FGFR1; assay type: biochemical; settings: 25 μM ATP, 60 minutes, room temperature; read-out: IC50 detected by Z'-LYTE, FGFR1
T2 construct: purchased Life technology
In short: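 Z′-LYTE FRET assay with 1 nM FGFR1, 2 μM Tyr4 peptide and 25 μM ATP in HEPES pH 7.5 with Mg/Mn, 60 min at room temperature, then development 60 min at 23 °C. Compounds tested at 11 concentrations from 10 μM to 0.17 nM in 1% DMSO. IC50 from 4-parameter fit of inhibition.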

PDGFRB = molecular target: T3, PDGFRB (Homo sapiens, UniProt P09619); test: Z'-LYTE in vitro enzyme activity assay, PDGFRB; assay type: biochemical; settings: 100 μM ATP, 60 minutes, room temperature; read-out: IC50 detected by Z'-LYTE, PDGFRB
T3 construct: purchased Millipore
In short: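 Z′-LYTE FRET kinase assay using 40 nM PDGFRB, 2 μM Tyr4 peptide and 100 μM ATP in HEPES pH 7.5 with Mg2+/Mn2+ and 1% DMSO. The reaction ran 60 min at room temperature, followed by development for 60 min at 23 °C. IC50 values came from 4-parameter fits over 11 concentrations (10 μM–0.17 nM).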

HUVEC = test: CellTiter-Glo luminescent cell viability assay, HUVEC stimulated with hVEGF-165; assay type: cell-based; settings: Homo sapiens, hVEGF-165 20 ng/ml, 72 hours, read-out: IC50 detected by CellTiter-Glo, HUVEC
Protocol: The intracellular ATP changes were measured by CellTiter-Glo® Luminescent Cell Viability Assay. The IC50 value of the compounds was used as an index to evaluate the inhibitory effect of the compounds on HUVEC in vitro.
HUVEC cell line (ATCC), EGM-2 BulletKit (Lonza), hVEGF-165 (Cell Signaling), trypsin (Invitrogen), DPBS (Hyclone), 384 cell plate (Greiner), 384 compound plate (Greiner), CO2 incubator (Thermo), centrifuge (Eppendorf), Vi-cell cell counter (Beckman Coulter), Bravo Automatic Liquid Workstation (Agilent), Envision (Perkin Elmer)
B: Cell plating: HUVEC cells were resuspended with starved medium (only containing 2% FBS and 0.1% GA-1000) and diluted to a concentration of 20,000/mL. The diluted cells were added to a 384 plate (Greiner), 50 μl per well. The cell plates were placed in a 37° C., 5% CO2 incubator overnight.
C: Drug addition: the test compounds were diluted 4 times to obtain a total of 10 doses at a final concentration of 10 uM to 0.038 nM, two parallel wells. The middle plate was added with 47.6 uL of starved medium per well. 2.4 μl of compounds was transferred from a gradient dilution compound plate to a middle plate and mixed well. 5 μl of liquid was transferred from the middle plate to a cell plate. Incubate for 1 hour at 37° C. in a 5% CO2 incubator, 5 μl of starved medium containing hVEGF-165 (the final concentration was 20 ng/ml) and Heparin (the final concentration was 1 ng/m) were added and incubated at 37° C. in a 5% CO2 incubator for 72 hours.
D: After 72 hours, 30 μl of assay reagents was added and incubated at room temperature for 10-30 minutes, Envision was used to read the plate.
The reading was converted into suppression rate (%) (Max−Sample)/(Max−Min)*100%. Parameter curve fitting (Model 205 in XLFIT5, iDBS) was used to measure to obtain IC50 data.

T2 sequence (P11362 22-822): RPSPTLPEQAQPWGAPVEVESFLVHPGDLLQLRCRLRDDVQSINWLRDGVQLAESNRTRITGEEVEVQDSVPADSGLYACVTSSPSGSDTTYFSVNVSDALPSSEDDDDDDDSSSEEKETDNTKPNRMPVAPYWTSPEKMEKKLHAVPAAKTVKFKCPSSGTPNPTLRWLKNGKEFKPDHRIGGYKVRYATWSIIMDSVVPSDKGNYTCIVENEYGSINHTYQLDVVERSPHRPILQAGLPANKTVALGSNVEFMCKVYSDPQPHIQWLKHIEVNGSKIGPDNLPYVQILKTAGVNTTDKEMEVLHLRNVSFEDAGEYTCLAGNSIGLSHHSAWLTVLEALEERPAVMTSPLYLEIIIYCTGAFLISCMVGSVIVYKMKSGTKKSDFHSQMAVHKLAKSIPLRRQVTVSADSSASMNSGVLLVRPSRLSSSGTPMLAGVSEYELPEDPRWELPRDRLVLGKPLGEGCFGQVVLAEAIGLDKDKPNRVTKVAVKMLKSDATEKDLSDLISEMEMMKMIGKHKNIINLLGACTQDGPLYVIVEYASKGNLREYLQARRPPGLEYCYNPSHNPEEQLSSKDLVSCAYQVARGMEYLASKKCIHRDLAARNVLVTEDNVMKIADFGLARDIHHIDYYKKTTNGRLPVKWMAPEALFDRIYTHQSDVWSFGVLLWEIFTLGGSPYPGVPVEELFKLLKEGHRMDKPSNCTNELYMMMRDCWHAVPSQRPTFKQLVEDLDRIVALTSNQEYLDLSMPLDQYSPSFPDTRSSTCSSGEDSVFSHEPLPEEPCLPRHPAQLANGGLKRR
T3 sequence (P09619 33-1106): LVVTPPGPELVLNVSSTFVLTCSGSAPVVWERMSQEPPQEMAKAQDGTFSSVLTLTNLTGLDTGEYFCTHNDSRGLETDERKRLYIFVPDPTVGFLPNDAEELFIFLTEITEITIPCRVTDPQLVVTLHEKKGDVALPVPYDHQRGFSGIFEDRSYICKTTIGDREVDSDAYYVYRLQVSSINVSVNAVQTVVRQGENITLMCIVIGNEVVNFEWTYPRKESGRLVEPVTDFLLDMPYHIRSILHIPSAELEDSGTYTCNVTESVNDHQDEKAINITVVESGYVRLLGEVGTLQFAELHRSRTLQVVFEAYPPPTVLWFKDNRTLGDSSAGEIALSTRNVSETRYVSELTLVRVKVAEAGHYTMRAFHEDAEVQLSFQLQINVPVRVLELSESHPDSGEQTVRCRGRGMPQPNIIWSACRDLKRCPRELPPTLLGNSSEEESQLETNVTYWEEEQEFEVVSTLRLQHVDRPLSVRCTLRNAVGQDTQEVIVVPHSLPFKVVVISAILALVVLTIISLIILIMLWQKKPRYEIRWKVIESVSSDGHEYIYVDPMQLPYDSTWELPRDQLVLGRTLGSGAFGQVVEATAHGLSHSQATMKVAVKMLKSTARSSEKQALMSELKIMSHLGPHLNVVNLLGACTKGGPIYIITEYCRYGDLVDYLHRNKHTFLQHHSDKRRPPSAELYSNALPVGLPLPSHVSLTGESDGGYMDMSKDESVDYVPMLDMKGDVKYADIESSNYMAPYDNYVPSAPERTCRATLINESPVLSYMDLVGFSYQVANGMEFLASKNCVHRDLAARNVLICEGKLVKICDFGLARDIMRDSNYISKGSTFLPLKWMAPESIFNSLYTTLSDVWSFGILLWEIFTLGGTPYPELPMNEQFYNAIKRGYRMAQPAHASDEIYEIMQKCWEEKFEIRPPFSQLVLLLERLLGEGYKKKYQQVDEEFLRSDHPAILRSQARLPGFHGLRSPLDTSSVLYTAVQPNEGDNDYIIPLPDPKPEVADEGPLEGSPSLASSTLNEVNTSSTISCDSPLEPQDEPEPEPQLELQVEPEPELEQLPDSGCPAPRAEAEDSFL
T1 sequence (P35968 20-1356): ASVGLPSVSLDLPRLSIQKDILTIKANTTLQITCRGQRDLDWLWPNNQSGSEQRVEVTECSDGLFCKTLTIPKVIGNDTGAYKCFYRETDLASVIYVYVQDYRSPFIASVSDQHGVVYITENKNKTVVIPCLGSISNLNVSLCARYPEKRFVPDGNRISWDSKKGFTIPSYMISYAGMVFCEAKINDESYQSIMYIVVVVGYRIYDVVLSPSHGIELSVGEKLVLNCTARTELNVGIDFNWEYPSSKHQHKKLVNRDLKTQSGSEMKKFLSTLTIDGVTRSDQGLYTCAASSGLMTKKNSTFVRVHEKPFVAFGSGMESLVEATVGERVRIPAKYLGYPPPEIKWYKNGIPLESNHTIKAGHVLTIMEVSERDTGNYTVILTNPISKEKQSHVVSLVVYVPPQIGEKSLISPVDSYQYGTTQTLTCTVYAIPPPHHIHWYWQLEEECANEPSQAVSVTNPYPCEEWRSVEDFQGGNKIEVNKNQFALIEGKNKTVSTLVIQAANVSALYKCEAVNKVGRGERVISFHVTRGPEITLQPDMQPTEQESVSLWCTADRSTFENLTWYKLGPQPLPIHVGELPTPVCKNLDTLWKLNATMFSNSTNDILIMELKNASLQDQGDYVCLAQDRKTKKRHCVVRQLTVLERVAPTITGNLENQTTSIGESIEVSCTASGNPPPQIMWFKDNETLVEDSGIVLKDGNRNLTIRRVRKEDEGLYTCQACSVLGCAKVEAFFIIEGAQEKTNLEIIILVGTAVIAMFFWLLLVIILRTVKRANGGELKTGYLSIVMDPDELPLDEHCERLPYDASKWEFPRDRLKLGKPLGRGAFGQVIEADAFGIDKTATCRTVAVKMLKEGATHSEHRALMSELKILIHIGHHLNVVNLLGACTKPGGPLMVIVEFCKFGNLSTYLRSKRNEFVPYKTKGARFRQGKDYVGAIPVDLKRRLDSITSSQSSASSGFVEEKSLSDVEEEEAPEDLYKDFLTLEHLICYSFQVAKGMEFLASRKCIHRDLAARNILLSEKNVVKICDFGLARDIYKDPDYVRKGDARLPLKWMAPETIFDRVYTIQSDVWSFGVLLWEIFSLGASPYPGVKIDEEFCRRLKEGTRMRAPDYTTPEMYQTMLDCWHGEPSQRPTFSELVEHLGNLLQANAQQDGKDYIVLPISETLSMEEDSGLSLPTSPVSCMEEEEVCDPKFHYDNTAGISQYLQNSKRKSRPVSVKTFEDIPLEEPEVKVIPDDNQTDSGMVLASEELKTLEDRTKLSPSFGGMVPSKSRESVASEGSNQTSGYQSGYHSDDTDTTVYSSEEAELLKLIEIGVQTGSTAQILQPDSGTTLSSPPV

Compound | IC50 (VEGFR2) [nM] | IC50 (FGFR1) [nM] | IC50 (PDGFRB) [nM] | IC50 (HUVEC) [nM]
COc1cc2nccc(Oc3ccc(NC(=S)Nc4ccccc4)c(Cl)c3)c2cc1C(N)=O [Example 2] | 50 to 200 | 200 to 1000 | 50 to 200 | < 100
COc1cc2nccc(Oc3ccc(NC(=S)NC4CCC4)c(Cl)c3)c2cc1C(N)=O [Example 6] | < 50 | 200 to 1000 | 50 to 200 | < 100
COc1cc2nccc(Oc3ccc(NC(=S)NCC(F)F)c(Cl)c3)c2cc1C(N)=O [Example 12] | < 50 | 50 to 200 | 50 to 200 | < 100
COc1cc2nccc(Oc3ccc(NC(=S)NCC(F)(F)F)c(Cl)c3)c2cc1C(N)=O [Example 16] | < 50 | 200 to 1000 | 50 to 200 | < 100
COc1cc2nccc(Oc3ccc(NC(=S)N[C@H](C)CO)c(Cl)c3)c2cc1C(N)=O [Example 21] | < 50 | 200 to 1000 | 50 to 200 | < 100
CNC(=S)Nc1ccc(Oc2ccnc3cc(OC)c(C(N)=O)cc23)cc1Cl [Example 28] | < 50 | 50 to 200 | < 50 | < 100
COc1cc2nccc(Oc3ccc(NC(=S)NC4CC4)c(Cl)c3)c2cc1C(=O)NO [Example 50] | < 50 | 200 to 1000 | 50 to 200 | 100 to 1000
COc1cc2nccc(Oc3ccc(NC(=S)N(C)C)c(Cl)c3)c2cc1C(N)=O [Example 55] | 50 to 200 | 50 to 200 | 200 to 1000 | 100 to 1000
CCNC(=S)Nc1ccc(Oc2ccnc3cc(OC)c(C(N)=O)cc23)cc1Cl [Example 56] | < 50 | 50 to 200 | < 50 | < 100
CCOCCCOc1cc2nccc(Oc3ccc(NC(=S)NC4CC4)c(Cl)c3)c2cc1C(N)=O [Example 58] | < 50 | 200 to 1000 | 50 to 200 | 100 to 1000
Cc1c(OC[C@H](C)O)cn2ncnc(Oc3ccc(NC(=O)NC4CC4)c(Cl)c3)c12 [Example 127] | < 50 |  |  | < 100
COc1cc2nccc(Oc3ccc(Nc4c(NC5CC5)c(=O)c4=O)c(Cl)c3)c2cc1C(N)=O [Example 130] | 200 to 1000 |  |  | 100 to 1000
COc1cc2nccc(Oc3ccc4nc(NC5CC5)sc4c3)c2cc1C(N)=O [Example 131] | 200 to 1000 |  |  | 100 to 1000
COc1cc2nccc(Oc3ccc(NC(=S)N4CC(F)(F)C4)c(Cl)c3)c2cc1NC(C)=O [Example 180] | 200 to 1000 | 200 to 1000 | 200 to 1000 | 
COc1cc2nccc(Oc3ccc(NC(=S)N4CCCC4)c(Cl)c3)c2cc1NC(C)=O [Example 181] | 200 to 1000 | 200 to 1000 | 200 to 1000 | 
COc1cc2nccc(Oc3ccc(NC(=S)NC4CC4)c(Cl)c3)c2cc1NC(C)=O [Example 182] | 50 to 200 | 200 to 1000 | 200 to 1000 | 
COc1cc2nccc(Oc3ccc(NC(=S)N4CC(F)(F)C4)c(Cl)c3)c2cc1C(F)(F)F [Example 184] | 200 to 1000 | 200 to 1000 | 200 to 1000 | 
COc1cc2nccc(Oc3ccc4c(C(=O)NC5CC5)c[nH]c4c3)c2cc1C(N)=O [Example 186] | < 50 | 200 to 1000 | 200 to 1000 | 
COc1cc2nccc(Oc3ccc4c(C(=O)N5CC(F)(F)C5)coc4c3)c2cc1C(N)=O [Example 187] | 200 to 1000 | 200 to 1000 | 200 to 1000 | 
COc1cc2nccc(Oc3ccc4c(C(=O)N5CCCC5)c[nH]c4c3)c2cc1C(N)=O [Example 188] | 200 to 1000 | 200 to 1000 | 200 to 1000 | 

Compound | IC50 (VEGFR2) [nM] | IC50 (FGFR1) [nM] | IC50 (PDGFRB) [nM] | IC50 (HUVEC) [nM]
COc1cc2nccc(Oc3ccc4c(C(=O)N5CC(F)(F)C5)c[nH]c4c3)c2cc1C(N)=O [Example 189] | 200 to 1000 | 200 to 1000 | 200 to 1000 | 
COc1cc2nccc(Oc3ccc4c(NC(=S)NC5CC5)nn(C)c4c3)c2cc1C(N)=O [Example 193] | 200 to 1000 | 200 to 1000 | 50 to 200 | 
COc1cc2nccc(Oc3cc(Cl)c4c(C(=O)N5CCCC5)coc4c3)c2cc1C(N)=O [Example 194] | 200 to 1000 | 200 to 1000 | 200 to 1000 | 
COc1cc2nccc(Oc3cc(Cl)c4c(C(=O)N5CC(F)(F)C5)coc4c3)c2cc1C(N)=O [Example 195] | 200 to 1000 | 200 to 1000 | 200 to 1000 | 
COc1cc2nccc(Oc3cc(Cl)c4c(C(=O)NC5CC5)coc4c3)c2cc1C(N)=O [Example 196] | 200 to 1000 | 200 to 1000 | 200 to 1000 | 
COc1cc2nccc(Oc3cc4occ(C(=O)N5CCCC5)c4cc3Cl)c2cc1C(N)=O [Example 197] | 200 to 1000 | 200 to 1000 | 200 to 1000 | 
COc1cc2nccc(Oc3cc4occ(C(=O)N5CC(F)(F)C5)c4cc3Cl)c2cc1C(N)=O [Example 198] | 200 to 1000 | 200 to 1000 | 200 to 1000 | 
COc1cc2nccc(Oc3cc4occ(C(=O)NC5CC5)c4cc3Cl)c2cc1C(N)=O [Example 199] | 50 to 200 | 200 to 1000 | < 50 | 
COc1cc2nccc(Oc3ccc4c(C(=O)N5CC[C@@H](O)C5)coc4c3)c2cc1C(N)=O [Example 201] | 200 to 1000 | 200 to 1000 | 200 to 1000 | 
COc1cc2nccc(Oc3ccc4c(C(=O)N5CC[C@@H](F)C5)coc4c3)c2cc1C(N)=O [Example 202] | 200 to 1000 | 200 to 1000 | 200 to 1000 | 
COc1cc2nccc(Oc3ccc4c(C(=O)N5CC[C@H](O)C5)coc4c3)c2cc1C(N)=O [Example 203] | 200 to 1000 | 200 to 1000 | 50 to 200 | 
COc1cc2nccc(Oc3cc(Br)c4c(C(=O)N5CC(F)(F)C5)coc4c3)c2cc1C(N)=O [Example 204] | 200 to 1000 | 200 to 1000 | 200 to 1000 | 
COc1cc2nccc(Oc3ccc4c(C(=O)N5CC[C@H](F)C5)coc4c3)c2cc1C(N)=O [Example 205] | 200 to 1000 | 200 to 1000 | 200 to 1000 | 
COc1cc2nccc(Oc3ccc4c(C(=O)N5CCCC5)coc4c3)c2cc1C(N)=O [Example 206] | 200 to 1000 | 200 to 1000 | 200 to 1000 | 
CCNC(=O)c1coc2cc(Oc3ccnc4cc(OC)c(C(N)=O)cc34)c(F)cc12 [Example 208] | 50 to 200 | 200 to 1000 | < 50 | 
[2H]C([2H])([2H])NC(=O)c1coc2cc(Oc3ccnc4cc(OC)c(C(N)=O)cc34)c(Cl)cc12 [Example 211] | 50 to 200 | 200 to 1000 | < 50 | 
Cn1cncc1-c1ccc2c(Oc3ccc(NC(=S)NC4CC4)c(Cl)c3)ccnc2c1 [Example 213] | < 50 | 50 to 200 | 50 to 200 | 
O=C(Nc1ccc(Oc2ccnc3cc(-c4cncn4-c4ccccc4)ccc23)c(F)c1Cl)NC1CC1 [Example 227] | 50 to 200 | 200 to 1000 | 200 to 1000 | 
O=C(Nc1ccc(Oc2ccnc3cc(-c4cn(-c5ccccc5)cn4)ccc23)c(F)c1Cl)NC1CC1 [Example 228] | 200 to 1000 | 200 to 1000 | 200 to 1000 | 
Cc1nc(-c2ccc3c(Oc4ccc(NC(=O)NC5CC5)c(Cl)c4F)ccnc3c2)cn1C [Example 229] | < 50 | < 50 | < 50 | 
